Test results: PMC3779154, “Identification of Therapeutic Candidates for Chronic Lymphocytic Leukemia from a Library of Approved Drugs” (PLoS ONE, 2013)
Counter-ions that a name gives are not always drawn. Like-named read-outs stand apart in the source and are kept apart here. Starred links: 1 amine or outer side, 2 acyl side, 3 side chain; linkers in the order of their positions; H or OH if unused. Positions of bridges follow the written chain, without caps; N, C: chain ends. Non-standard residues stand in square brackets, D forms with d. Residues, ends and D or L forms follow the SMILES beside them. Chains are numbered I, II in the order given. Actinocin(9to1) = Cc1c2oc3c(C)ccc(C(=O)[*:1])c3nc-2c(C(=O)[*:2])c(N)c1=O; NMeV = CN[C@H](C(=O)O)C(C)C; Sar = CNCC(=O)O

Tests used:
[1] = system: fresh CLL patient lymphocytes; test: cells; settings: Homo sapiens
Procedure: (§1) Cell viability was measured using a luciferase-based ATP quantitation assay (CellTiter-Glo^TM, Promega). The intracellular ATP content indicates the number of viable (i.e. metabolically competent) cells after compound treatment. […] After that, a total of 23 nL of compounds at 8 selected concentrations from the NPC library or positive control (10 mM stock of doxorubicin hydrochloride) in DMSO was transferred to each well of the assay plate using a pintool (Kalypsys, San Diego, CA), and the plates were further incubated at 37 °C with 5% CO2 for 24 hours to allow the reaction. Then 4µL of CellTilter-Glo luminescent substrate mix was added to each well. The plate was incubated at room temperature for 15 minutes. The plates were measured on a ViewLux plate reader (PerkinElmer) with clear filter. […] The test volume of 5,000 cells/4 μL/well was selected as the final assay condition in cell density tests based on the assay performance statistics: signal/background ratio, coefficient of variation and Z’-factor (data not shown).
(§2) Fresh primary cells were also obtained from two unaffected normal donors and seven CLL patients whose blood samples were collected within hours of apheresis and which had not been included in our previous experiments.

[2] = system: fresh CLL patient lymphocytes
Procedure: as §1, §2

[3] = system: lymphocytes from normal donors; settings: for IC50: read-out: IC50 normal, average of 2 normal donors, fresh, Figure 5; for potency shift between CLL and normal donor samples: fresh cells, normal IC50 vs CLL IC50; for difference in efficacy between CLL and unaffected donor samples: at 19 µM and 57 µM, the two highest testing concentrations
Procedure: (§3) Cell viability was measured using a luciferase-based ATP quantitation assay (CellTiter-Glo^TM, Promega). The intracellular ATP content indicates the number of viable (i.e. metabolically competent) cells after compound treatment. Four µL of CLL cells resuspended in AIM medium at 1,330,000 cells/ml, were dispensed into each well of white, solid bottom, 1536-well tissue culture–treated plates using a Multidrop-Combi dispenser and incubated overnight. After that, a total of 23 nL of compounds at 8 selected concentrations from the NPC library or positive control (10 mM stock of doxorubicin hydrochloride) in DMSO was transferred to each well of the assay plate using a pintool (Kalypsys, San Diego, CA), and the plates were further incubated at 37 °C with 5% CO2 for 24 hours to allow the reaction. Then 4µL of CellTilter-Glo luminescent substrate mix was added to each well. The plate was incubated at room temperature for 15 minutes. The plates were measured on a ViewLux plate reader (PerkinElmer) with clear filter.
(§4) These compounds were then re-tested in the cell viability assay using 12 point titrations with concentration ranging from 57 µM to 0.3 nM with 1:3 dilution.
as §2

[4] = system: ME-180 human cervical carcinoma cell line; test: Cell viability assay, ME-180 cells (NPC library profiling)
Excerpt: Based on the definition of actives, inactives and inconclusive mentioned above, compounds were further clustered hierarchically using Spotfire DecisionSite 8.2 (Spotfire Inc., Cambridge, MA) based on their activity outcomes from the primary screen across a wide variety of cell viability assays against different cell lines or primary patient cells. Each compound was converted into an integer which represents its activity outcome in each cell viability assay. […] Integer 2 represents compounds in “inconclusive” category which is corresponding to light red in the heat map. […] Compounds not tested in the assay were labeled as 4 and shown as grey in the heat map.

[5] = system: lymphocytes from normal donors; test: cells; settings: Homo sapiens, Lymphocyte, read-out: IC50 normal
Procedure: as §3, §4, §2

caspase-3/7 = test: Caspase-Glo 3/7 activation assay in CLL samples; type: cell-based, human; settings: read-out: EC50 caspase-3/7 activity
Procedure: The effect of selected compounds on caspase activity was measured using a homogeneous luminescent method (Caspase-Glo® 3/7, 8 and 9 kits, Promega, Madison, WI). Briefly in this assay, caspase induced by cells cleaves a pro-luciferin substrate where a tetrapeptide caspase substrate - DEVD (asp-glu-val-asp) is cleaved to free aminoluciferin, which can be used as a substrate by luciferase yielding a bioluminescent signal. The luminescent signal is proportional to the amount of caspase activity present in the cells. Cells were dispensed in culture medium at 5,000/cells/5uL/well in 1536-well white/solid-bottom assay plates. The cells were incubated for overnight at 37°C. The compounds (23nL/well) were added via the pin tool. The treated cells were further incubated for 24 h at 37°C, followed by the addition of the Caspase-Glo 3/7, 8 or 9 reagents at 5uL/well. After a 30 min incubation at room temperature, the luminescence intensity of the assay plates was measured using a ViewLux Plate Reader. The caspase activity was normalized to DMSO control.

primary CLL cells = test: qHTS luminescent ATP cell viability assay (CellTiter-Glo), primary screen, frozen CLL patient cells; type: cell-based, human; settings: for cytotoxicity across CLL cell samples: six CLL patient samples, primary screen; for IC50 / Emax: Homo sapiens, CLL cell; for Emax: CLL cells, 24 h, normalized to doxorubicin control, read-out: efficacy (maximal response)
Excerpt: Lymphocytes from 13 CLL treatment naïve patients (Table 1 ) and 5 normal donors were obtained by lymphapheresis with written informed consent and isolated by gradient centrifugation using Lymphocyte Separation Medium (MP Biomedicals, Solon, OH) and used fresh or cryopreserved in liquid nitrogen in 10% dimethyl sulfoxide, 90% FCS. CLL patients were consented on the institutional review board (IRB) approved at the National Heart, Lung, and Blood Institute (NHLBI, Office of Clinical Affairs, Bldg 10, CRC. Room 6-5140, Bethesda, Maryland 20892-1608) with protocol 04-H-0012 and samples from normal donors were collected by the Department of Transfusion Medicine, National Institutes of Health (NIH). This study was approved by the IRB mentioned above. Fresh cells were temporally placed on ice and plated for screening within 3 hrs of apheresis. Frozen cells were thawed the night before the assay and incubated in T175 flask in AIM V medium to recover overnight. Analysis of IGHV gene status was performed as described. CLL samples were cultured in AIM V serum free medium (Gibco-Invitrogen, Long Island, NY).
Compound formatting and qHTS were performed as described previously. The final concentration of the NPC compounds in the 4 µL assay volume ranged from 57 µM to 0.7 nM in 1:5 dilution steps. The positive control plate format was as follows: columns 1 and 3, DMSO only; column 2, doxorubicin, a known cytotoxic chemotherapy agent in a 1:2 dilution series from 10 µM to 5 nM in DMSO; and column 4, doxorubicin at 10 µM in DMSO.
To determine compound activity in the qHTS assay, the concentration-response data for each sample was plotted and modeled by a four parameter logistic fit yielding IC50 and efficacy (maximal response) values as previously described. Data normalization and curve fitting were performed using in-house informatics tools. Briefly, raw plate reads for each titration point were first normalized relative to the positive control compound (100%) and DMSO-only wells (basal, 0%), and then corrected by applying a pattern correction algorithm using compound-free control plates (i.e., DMSO-only plates) at the beginning and end of the NPC compound plate stack. […] In brief, Class 1.1 and 1.2 were the highest-confidence complete CRCs containing upper and lower asymptotes with efficacies ≥ 80% and < 80%, respectively. Class 2.1 and 2.2 were incomplete CRCs having only one asymptote with efficacy ≥ 80% and < 80%, respectively.
Compounds from the primary qHTS screen were further classified into three categories according to the quality of curve fit and efficacy.

[6] = read-out: IC50 CLL, average of cells from 7 CLL patients, fresh, Figure 5
[7] = Lymphocyte, read-out: IC50 CLL, average of cells from 7 CLL patients, fresh, Figure 5
[8] = confirmation assay, fresh CLL samples, 24 h, Table S1
[9] = Lymphocyte, 24 h, confirmation assay, fresh CLL samples, Table S1

CO[C@@H]1[C@H](O)C[C@@H](O[C@@H]2C[C@H](Oc3cc4cc5c(c(O)c4c(O)c3C)C(=O)[C@@H](O[C@H]3C[C@@H](O[C@H]4C[C@@H](O[C@H]6C[C@](C)(O)[C@@H](OC(C)=O)[C@H](C)O6)[C@H](O)[C@@H](C)O4)[C@H](O)[C@@H](C)O3)[C@H]([C@H](OC)C(=O)[C@@H](O)[C@@H](C)O)C5)O[C@H](C)[C@@H]2OC(C)=O)O[C@@H]1C [chromomycin A3]
IC50 ([1]; Lymphocyte, 24 h): < 1000 nM

Nc1nc(F)nc2c1ncn2[C@@H]1O[C@H](CO)[C@@H](O)[C@@H]1O [fludarabine]
IC50 [2, 6]: 12200 nM
IC50 ([2]; read-out: potency, comparable cell killing against CLL cells and normal lymphocytes): 12000 nM
IC50 [3]: 9400 nM

CC[C@@]1(O)C[C@H](O[C@H]2C[C@H](N(C)C)[C@H](O[C@H]3C[C@H](O)[C@H](O[C@H]4CCC(=O)[C@H](C)O4)[C@H](C)O3)[C@H](C)O2)c2c(cc3c(c2O)C(=O)c2c(O)cccc2C3=O)[C@H]1C(=O)OC [aclarubicin hydrochloride]
IC50 ([1]; Lymphocyte, 24 h): < 1000 nM

CC(=O)[O][Hg][c]1ccccc1 [phenylmercuric acetate]
cytotoxicity in ME-180 cells [4]: prominent cytotoxicity

COc1cccc2c1C(=O)c1c(O)c3c(c(O)c1C2=O)C[C@@](O)(C(=O)CO)C[C@@H]3O[C@H]1C[C@H](N)[C@H](O)[C@H](C)O1 [doxorubicin]
IC50 [5]: 14400 nM
IC50 [1, 7]: 4500 nM
potency shift between CLL and normal donor samples [3]: 3 fold

CC[C@]1(O)C[C@H]2CN(CCc3c([nH]c4ccccc34)[C@@](C(=O)OC)(c3cc4c(cc3OC)N(C=O)[C@H]3[C@@](O)(C(=O)OC)[C@H](OC(C)=O)[C@]5(CC)C=CCN6CC[C@]43[C@@H]65)C2)C1 [vincristine]
IC50 [2, 8]: < 1000 nM

plicamycin
EC50 (caspase-3/7; CLL samples, 24 hours): 430 nM
IC50 [2, 8]: < 1000 nM
IC50 [2, 6]: 750 nM
difference in efficacy between CLL and unaffected donor samples [3]: over 40%
potency shift between CLL and normal donor samples [3]: about 3 fold
IC50 [3]: 840 nM
decreased efficacy to normal B cells ([3]; versus CLL cells): over 40%

COc1cc([C@@H]2c3cc4c(cc3[C@H](O)[C@H]3COC(=O)[C@H]23)OCO4)cc(OC)c1OC [podofilox]
EC50 (caspase-3/7; Homo sapiens, 24 h): < 100 nM
IC50 [5]: 150 nM
efficacy (cytotoxicity) ([2]; human): > 60%
IC50 [2, 6]: < 1000 nM
IC50 ([2]; read-out: IC50 CLL, average of cells from 7 CLL patients, fresh, Figure 5, listed as Podofilox): 60 nM
cytotoxicity on lymphocytes derived from unaffected donors [3]: almost no cytotoxicity
difference in efficacy between CLL and unaffected donor samples [3]: over 40%
decreased efficacy against B-cells from normal donors ([3]; at the testing concentration of 1.7 µM): approximately 40%
potency shift between CLL and normal donor samples [3]: about 3 fold

C[n+]1cc2c3c(ccc2c2ccc4cc5c(cc4c21)OCO5)OCO3 [sanguinarine]
cytotoxicity in ME-180 cells [4]: prominent cytotoxicity

C[C@H]1CC[C@]2(NC1)O[C@H]1C[C@H]3[C@@H]4CC[C@H]5C[C@@H](O[C@@H]6O[C@H](CO)[C@H](O[C@@H]7O[C@H](CO)[C@@H](O)[C@H](O[C@@H]8OC[C@@H](O)[C@H](O)[C@H]8O)[C@H]7O[C@@H]7O[C@H](CO)[C@@H](O)[C@H](O)[C@H]7O)[C@H](O)[C@H]6O)CC[C@]5(C)[C@H]4CC[C@]3(C)[C@H]1[C@@H]2C [tomatine]
cytotoxicity in ME-180 cells [4]: prominent cytotoxicity

COc1cc2c(cc1O)CCN[C@]21CS[C@@H]2c3c(OC(C)=O)c(C)c4c(c3[C@H](COC1=O)N1[C@@H]2[C@H]2c3c(cc(C)c(OC)c3O)C[C@@H]([C@@H]1O)N2C)OCO4 [trabectedin]
cytotoxicity across CLL cell samples (primary CLL cells): cytotoxicity in all CLL cell samples at similar concentrations
IC50 [1, 9]: < 1000 nM

CC(C)C[C@H](NC(=O)[C@H](Cc1ccccc1)NC(=O)c1cnccn1)B(O)O [bortezomib]
cytotoxicity across CLL cell samples (primary CLL cells): cytotoxicity in all CLL cell samples at similar concentrations
IC50 [1, 9]: < 1000 nM

CC(=O)[C@]1(O)Cc2c(O)c3c(c(O)c2[C@@H](O[C@H]2C[C@H](N)[C@H](O)[C@H](C)O2)C1)C(=O)c1ccccc1C3=O [idarubicin]
IC50 (primary CLL cells; CLL patient #4705): 3200 nM
IC50 (primary CLL cells; CLL patient #4789): 100 nM
IC50 (primary CLL cells; CLL patient #4808): 100 nM
potency shift (primary CLL cells; patient #4705 compared to #4789 and #4808): 32 fold
IC50 [1, 9]: < 1000 nM

COc1cc([C@@H]2c3cc4c(cc3[C@@H](O[C@@H]3O[C@@H]5CO[C@@H](c6cccs6)O[C@H]5[C@H](O)[C@H]3O)[C@H]3COC(=O)[C@H]23)OCO4)cc(OC)c1O [teniposide]
Emax (primary CLL cells): < 80%

O=C1c2c(O)ccc(O)c2C(=O)c2c(NCCNCCO)ccc(NCCNCCO)c21 [mitoxantrone]
IC50 [5]: 7000 nM
IC50 ([1]; CLL cell, read-out: potency, comparable cell killing against CLL cells and normal lymphocytes): 6000 nM
IC50 [1, 9]: ~5400 nM
IC50 [1, 7]: 7200 nM

Cc1c2oc3c(C)ccc(C(=O)N[C@@H]4C(=O)N[C@H](C(C)C)C(=O)N5CCC[C@H]5C(=O)N(C)CC(=O)N(C)[C@@H](C(C)C)C(=O)O[C@@H]4C)c3nc-2c(C(=O)N[C@@H]2C(=O)N[C@H](C(C)C)C(=O)N3CCC[C@H]3C(=O)N(C)CC(=O)N(C)[C@@H](C(C)C)C(=O)O[C@@H]2C)c(N)c1=O [actinomycin D] (I: T[dV]P[Sar][NMeV] / II: T[dV]P[Sar][NMeV]; ester I:1-I:C, II:1-II:C; linker I:N-II:N via Actinocin(9to1))
IC50 ([1]; Lymphocyte, 24 h): < 1000 nM

ivermectin
cytotoxicity in ME-180 cells [4]: prominent cytotoxicity

CC[C@]1(O)C[C@@H]2CN(CCc3c([nH]c4ccccc34)[C@@](C(=O)OC)(c3cc4c(cc3OC)N(C)[C@H]3[C@@](O)(C(=O)OC)[C@H](OC(C)=O)[C@]5(CC)C=CCN6CC[C@]43[C@@H]65)C2)C1 [vinblastine]
fold more potent in CLL sample #4808 than #4399 (primary CLL cells; CLL sample #4808 vs #4399): > 100 fold
Emax (primary CLL cells): > 80%

COC(=O)C[C@](O)(CCCC(C)(C)O)C(=O)O[C@@H]1C(OC)=C[C@]23CCCN2CCc2cc4c(cc2[C@H]13)OCO4 [omacetaxine mepesuccinate]
IC50 [1, 9]: < 1000 nM

Cc1cc(-c2ccc(/N=N/c3c(S(=O)(=O)O)cc4cc(S(=O)(=O)O)cc(N)c4c3O)c(C)c2)ccc1/N=N/c1c(S(=O)(=O)O)cc2cc(S(=O)(=O)O)cc(N)c2c1O [trypan blue]
cytotoxicity in ME-180 cells [4]: prominent cytotoxicity

Cn1c(CCCC(=O)O)nc2cc(N(CCCl)CCCl)ccc21 [bendamustine]
IC50 ([1]; Lymphocyte, 24 h): 12000 to 30000 nM

CN(C)c1ccc(C(=C2C=CC(=[N+](C)C)C=C2)c2c(O)c(S(=O)(=O)[O-])cc3cc(S(=O)(=O)[O-])ccc23)cc1.[Na+] [lissamine green B]
cytotoxicity in ME-180 cells [4]: prominent cytotoxicity
